Test results from patent US7253169B2, “Aza compounds, pharmaceutical compositions and methods of use” (Gliamed, Inc., priority 1999, dated 2007).

Assays:
[1] = tested on: TH-stained dopaminergic neurons; experiment: MPTP Model of Parkinson's Disease; format: in vivo; conditions: MPTP-lesioned CD1 mice; for % recovery of TH-stained dopaminergic neurons at 10 mg/kg: Mus musculus, Neuron, po, read-out: % TH recov 10 mg/kg p.o.
FKBP = FKBP (Homo sapiens, UniProt P62942); experiment: Ki Test: inhibition of peptidyl-prolyl isomerase (rotamase) activity, chymotrypsin-coupled assay; format: biochemical; conditions: apparent Ki
Sequence of FKBP (P62942 whole entry): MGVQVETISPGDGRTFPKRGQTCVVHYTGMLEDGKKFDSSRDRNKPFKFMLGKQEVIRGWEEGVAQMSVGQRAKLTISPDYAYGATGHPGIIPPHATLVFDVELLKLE
From the text: Inhibition of the peptidyl-prolyl isomerase (rotamase) activity of the inventive compounds can be evaluated by known methods described in the literature (Harding et al., Nature, 1989, 341:758-760; Holt et al. J. Am. Chem. Soc., 115:9923-9938). These values are obtained as apparent Ki's and are presented for representative compounds in Table V. The cis-trans isomerization of an alanine-proline bond in a model substrate, N-succinyl-Ala-Ala-Pro-Phe-p-nitroanilide, is monitored spectrophotometrically in a chymotrypsin-coupled assay, which releases para-nitroanilide from the trans form of the substrate. The inhibition of this reaction caused by the addition of different concentrations of inhibitor is determined, and the data is analyzed as a change in first-order rate constant as a function of inhibitor concentration to yield the apparent Ki values.
In a plastic cuvette are added […] of ice cold assay buffer (25 mM HEPES, pH 7.8, 100 mM NaCl), […] of FKBP (2.5 mM in 10 mM Tris-Cl pH 7.5, 100 mM NaCl, 1 mM dithiothreitol), […] of chymotrypsin (50 mg/ml in 1 mM HCl) and […] of test compound at various concentrations in dimethyl sulfoxide. […]
The absorbance at 390 nm versus time is monitored for 90 seconds using a spectrophotometer and the rate constants are determined from the absorbance versus time data files.

Structure (SMILES)	% recovery of TH-stained dopaminergic neurons at 10 mg/kg ([1]; 10 mg/kg p.o.)	other results
CCC(C)(C)C(=O)C(=O)N1CCCN1C(=O)CCCCCc1ccccc1 [Compound 6, 3,3-dimethyl-1-[2-(6-phenylhexanoyl)-pyrazolidinyl]pentane-1,2-dione]	32%	–
CCC(C)(C)C(=O)C(=O)N1CCCCN1C(=O)CCCCc1ccccc1 [Compound 18, 3,3-dimethyl-1-[2-({5-phenyl)pentanoyl)-perhydropyridazinyl]-pentane-1,2-dione]	18%	–
CCC(C)(C)C(=O)C(=O)N1CCCN1C(=O)CCC#Cc1cccnc1 [Compound 3, 3,3-dimethyl-1-[2-(5-(3-pyridyl)pent-4-ynoyl)-pyrazolidinyl]-pentane-1,2-dione]	26%	–
CCC(C)(C)C(=O)C(=O)N1CCCCN1C(=O)OCCCCCc1ccccc1 [Compound 16, 5-phenylpentyl 2-(3,3-dimethyl-2-oxopentanoyl)perhydro-pyridazinecarboxylate]	49%	–
CCC(C)(C)C(=O)C(=O)N1CCCCN1C(=O)OCCCCc1ccccc1 [Compound 15, 4-phenylbutyl 2-(3,3-dimethyl-2-oxopentanoyl)perhydro-pyridazinecarboxylate]	21%	–
O=C(OCCCCc1ccccc1)N1CCCCN1S(=O)(=O)Cc1ccccc1 [Compound 106, 4-phenylbutyl 2-[benzylsunfonyl]-perhydropyridazine-carboxylate]	23%	–
CCC(C)(C)C(=O)C(=O)N1CCCCN1C(=O)CCCCCc1cccnc1 [Compound 13, 3,3-dimethyl-2-[2-(6-(3-pyridyl)hexanoyl)-perhydropyridazinyl]-pentane-1,2-dione]	18%	Ki (FKBP): 3210 nM
CCC(C)(C)C(=O)C(=O)N1CCCN1C(=O)CCCc1ccccc1 [Compound 5, 3,3-dimethyl-1-[2-(4-phenylbutanoyl)-pyrazolidinyl]pentane-1,2-dione]	4%	–
CCC(C)(C)C(=O)C(=O)N1CCCCN1C(=O)OCCCc1ccccc1 [Compound 14, 3-phenylpropyl 2-(3,3-dimethyl-2-oxopentanoyl)-perhydropyridazine-carboxylate]	–	% TH recov 10 mg/kg p.o. ([1]; 10 mg/kg p.o.): 3%
CCC(C)(C)C(=O)C(=O)N1CCCN1C(=O)CCc1ccccc1 [Compound 2, 3,3-dimethyl-N-[2-(3-phenylpropanoyl)tetra-hydro-1H-1-pyrazolyl]-1,2-pentanedione]	10%	–
CCC(C)(C)C(=O)C(=O)N1CCCN1C(=O)CCCCc1cccnc1 [Compound 7, 3,3-dimethyl-1-[2-(5-(3-pyridyl)pentanoyl)-pyrazolidinyl]pentane-1,2-dione]	57%	–
CCC(C)(C)C(=O)C(=O)N1CCCCN1C(=O)OCCCCc1cccnc1 [Compound 17, 4-(3-pyridyl)butyl 2-(3,3-dimethyl-2-oxopentanoyl)-perhydropyridazine-carboxylate]	38%	–
CCC(C)(C)C(=O)C(=O)N1CCCN1C(=O)CCCCc1ccccc1 [Compound 1, 3,3-dimethyl-N-[2-(5-phenylpentanoyl) -tetrahydro-1H-1-pyrazolyl]-1,2-pentanedione]	–	Ki (FKBP): 1170 nM; % TH recov 4 mg/kg s.c. ([1]; 4 mg/kg s.c.): 14%
CCC(C)(C)C(=O)C(=O)N1CCCCN1C(=O)CCCCCc1ccccc1 [Compound 12, 3,3-dimethyl-1-[2-(6-phenylhexanoyl)-perhydropyridazinyl]-pentane-1,2-dione]	35%	–
O=C(NC1CCCCC1)N1CCCCN1C(=O)OCCCCc1ccccc1 [Compound 154, 4-phenylbutyl 2-(N-cyclohexylcarbamoyl)-perhydropyridazine-carboxylate]	46%	–
